Measurements as given in ChEMBL document CHEMBL2016540, “Indole-propionic acid derivatives as potent, S1P3-sparing and EAE efficacious sphingosine-1-phosphate 1 (S1P1) receptor agonists” (Bioorg Med Chem Lett, 2012).
Activity calls are given as the source filed them. The rule behind the calls is not given here.

Assays:
[1] = biological target: Sphingosine 1-phosphate receptor 1 (Homo sapiens, UniProt P21453); assay: Agonist activity at S1P1 receptor by Tango assay; format: functional
[2] = biological target: Sphingosine 1-phosphate receptor 3 (Homo sapiens, UniProt Q99500); assay: Agonist activity at human S1P3 receptor assessed as Ca2+ mobilization by GeneBLAzer assay; format: functional
Sphingosine 1-phosphate receptor 3, sequence (Q99500 whole entry): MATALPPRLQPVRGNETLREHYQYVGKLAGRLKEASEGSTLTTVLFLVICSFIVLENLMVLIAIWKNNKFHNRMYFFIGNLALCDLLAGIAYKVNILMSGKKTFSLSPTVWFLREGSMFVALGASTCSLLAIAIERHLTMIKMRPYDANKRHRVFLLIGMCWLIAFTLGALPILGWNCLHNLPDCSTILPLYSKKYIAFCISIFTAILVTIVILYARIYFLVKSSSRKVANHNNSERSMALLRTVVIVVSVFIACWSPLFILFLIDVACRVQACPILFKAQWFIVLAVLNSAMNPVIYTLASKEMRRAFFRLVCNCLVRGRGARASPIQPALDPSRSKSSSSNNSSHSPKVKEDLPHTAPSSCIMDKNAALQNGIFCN

Mus musculus [3] = assay: Immunosuppressive activity in naive B6 mouse assessed as peripheral lymphocytes at 1 mg/kg, po at 4 hrs relative to control; format: functional
Mus musculus [4] = assay: Immunosuppressive activity in naive B6 mouse assessed as peripheral lymphocytes at 1 mg/kg, po at 24 hrs relative to control; format: functional
[5] = Ratio of drug level in brain to blood in mouse at 2 mg/kg, ip at 1 hr; format: ADME, organism-based; parameters: dose 2 mg/kg, route intraperitoneal; details: brain and blood
[6] = Ratio of drug level in brain to blood in mouse at 2 mg/kg, ip at 2 hrs; format: ADME, organism-based; parameters: dose 2 mg/kg, route intraperitoneal; details: brain and blood
[7] = Ratio of drug level in brain to blood in mouse at 2 mg/kg, ip at 4 hrs; format: ADME, organism-based; parameters: dose 2 mg/kg, route intraperitoneal; details: brain and blood
[8] = Clearance in C57BL/6 mouse blood at 1 mg/kg, iv and 2 mg/kg, po; format: ADME, organism-based
[9] = Volume of distribution at steady state in C57BL/6 mouse blood at 1 mg/kg, iv and 2 mg/kg, po; format: ADME, organism-based; details: read-out: Vdss
[10] = Cmax in C57BL/6 mouse blood at 1 mg/kg, iv and 2 mg/kg, po; format: ADME, organism-based
[11] = Terminal half life in C57BL/6 mouse blood at 1 mg/kg, iv and 2 mg/kg, po; format: ADME, organism-based; details: read-out: beta t1/2 (converted)
[12] = Oral bioavailability in C57BL/6 mouse blood at 2 mg/kg; format: ADME, organism-based
Mus musculus [13] = species on record: Mus musculus; assay: Immunosuppressive activity in C57BL/6 mouse autoimmune encephalomyelitis model assessed as efficacy relative to fingolimod; format: functional, organism-based

Sphingosine 1-phosphate receptor 1, sequence (P21453 whole entry): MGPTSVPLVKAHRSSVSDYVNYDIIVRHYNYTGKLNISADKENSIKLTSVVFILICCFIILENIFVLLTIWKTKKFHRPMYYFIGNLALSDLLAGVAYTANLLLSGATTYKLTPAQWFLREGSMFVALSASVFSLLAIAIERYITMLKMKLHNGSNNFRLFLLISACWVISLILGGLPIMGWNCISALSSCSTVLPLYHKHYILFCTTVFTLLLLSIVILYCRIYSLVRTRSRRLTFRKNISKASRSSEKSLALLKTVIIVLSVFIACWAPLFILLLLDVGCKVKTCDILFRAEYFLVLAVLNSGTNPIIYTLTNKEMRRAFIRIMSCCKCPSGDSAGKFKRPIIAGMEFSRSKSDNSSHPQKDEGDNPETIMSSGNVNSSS

`CC(C)Oc1ccc(-c2nc(-c3cccc4c(C(=O)O)c[nH]c34)no2)cc1Cl` showed an EC50 [1] of 5.01 nM and an EC50 [2] greater than 10000 nM.
`CC(C)Oc1ncc(-c2nc(-c3cccc4c(CCC(=O)O)c[nH]c34)no2)cc1C(F)(F)F` gave an EC50 [1] of 0.251 nM and an EC50 [2] greater than 10000 nM.
`CC(C)Oc1ccc(-c2nc(-c3ccc4c(CCC(=O)O)c[nH]c4c3)no2)cc1Cl` gave an EC50 [1] of 0.251 nM and an EC50 [2] greater than 10000 nM.
In the case of `CC(C)Oc1ccc(-c2nc(-c3cccc4c(CCCC(=O)O)c[nH]c34)no2)cc1Cl`, the EC50 [1] is reported as 0.398 nM and the EC50 [2] is reported as greater than 10000 nM.
For `CC(C)Oc1ccc(-c2nc(-c3ccc(F)c4c(CCC(=O)O)cn(C)c34)no2)cc1Cl`, the EC50 [1] was less than 0.01 nM, the EC50 [2] was greater than 10000 nM and the Activity (Mus musculus [3]) was 21%. The Activity (Mus musculus [4]) was 114%, the Kp at 1 h [5] was 0.35 and the Kp at 2 h [6] was 0.48. For the same compound, the Kp at 4 h [7] was 0.48, the clearance [8] was 3.22 mL/min/kg and the Vd [9] was 0.84 L/kg. It also gave a Cmax [10] of 1700 ng/mL, a half-life [11] of 3.83 h and a bioavailability [12] of 100%. For the same compound, the Efficacy (Mus musculus [13]) was “Active”.
Work on `CC(C)Oc1ccc(-c2nc(-c3cccc4c(CCC(=O)O)c[nH]c34)no2)cc1Cl` yielded an EC50 [1] of 0.0126 nM and an EC50 [2] greater than 10000 nM.
Compound `CC(C)Oc1ccc(-c2nc(-c3cccc4c(CCC(=O)O)cn(C)c34)no2)cc1Cl` has an EC50 [1] of 0.00631 nM and an EC50 [2] greater than 10000 nM.
In the case of `O=C(O)CCc1c[nH]c2c(-c3noc(-c4ccc(Cl)cc4)n3)cccc12`, the EC50 [1] is reported as 3160 nM and the EC50 [2] is reported as greater than 10000 nM.
Work on `CC(C)Oc1ccc(-c2nc(-c3ccc4[nH]c(CCC(=O)O)cc4c3)no2)cc1Cl` yielded an EC50 [1] of 0.2 nM and an EC50 [2] greater than 10000 nM.
Compound `O=C(O)CCc1c[nH]c2c(-c3noc(-c4ccc5c(c4)OCCO5)n3)cccc12` has an EC50 [1] greater than 3160 nM and an EC50 [2] greater than 10000 nM.
`COc1ccc(-c2nc(-c3cccc4c(CCC(=O)O)c[nH]c34)no2)cc1OC` showed an EC50 [1] of 1260 nM and an EC50 [2] greater than 10000 nM.
`CC(C)Oc1ccc(-c2nc(-c3cccc4c(CCC(=O)O)cn(C(C)C)c34)no2)cc1Cl` gave an EC50 [1] of 20 nM and an EC50 [2] greater than 10000 nM.
With `CC(C)Oc1ccc(-c2nc(-c3cccc4c(CCCCC(=O)O)c[nH]c34)no2)cc1Cl` the EC50 [1] was 0.0501 nM and the EC50 [2] was greater than 10000 nM.
Compound `CC(C)Oc1ccc(-c2nc(-c3cc(F)cc4c(CCC(=O)O)cn(C)c34)no2)cc1Cl` has an EC50 [1] of less than 0.01 nM and an EC50 [2] greater than 10000 nM.
Work on `CCn1cc(CCC(=O)O)c2cccc(-c3noc(-c4ccc(OC(C)C)c(Cl)c4)n3)c21` yielded an EC50 [1] of 0.316 nM and an EC50 [2] greater than 10000 nM.
In the case of `O=C(O)CCc1c[nH]c2c(-c3noc(C4CCCCC4)n3)cccc12`, the EC50 [1] is reported as greater than 10000 nM and the EC50 [2] is reported as greater than 10000 nM.
For `Cc1cc(-c2nc(-c3cccc4c(CCC(=O)O)c[nH]c34)no2)cnc1OC(C)C`, the EC50 [1] was 1.58 nM and the EC50 [2] was greater than 10000 nM.
Work on `CCCn1cc(CCC(=O)O)c2cccc(-c3noc(-c4ccc(OC(C)C)c(Cl)c4)n3)c21` yielded an EC50 [1] of 200 nM and an EC50 [2] greater than 10000 nM.
For `CC1(C)Oc2ccc(-c3nc(-c4cccc5c(CCC(=O)O)c[nH]c45)no3)cc2O1`, the EC50 [1] was 398 nM and the EC50 [2] was greater than 10000 nM.
`CCOc1ccc(-c2nc(-c3cccc4c(CCC(=O)O)c[nH]c34)no2)cc1OCC` gave an EC50 [1] of 3.16 nM and an EC50 [2] greater than 10000 nM.
Work on `CC(C)Oc1ccc(-c2nc(-c3cccc4c(CCc5nnn[nH]5)c[nH]c34)no2)cc1Cl` yielded an EC50 [1] of 0.0794 nM and an EC50 [2] greater than 10000 nM.
With `CC(C)Oc1ccc(-c2nc(-c3ccc4c(ccn4CCC(=O)O)c3)no2)cc1Cl` the EC50 [1] was 2.51 nM and the EC50 [2] was greater than 10000 nM.
In the case of `COc1cc(-c2nc(-c3cccc4c(CCC(=O)O)c[nH]c34)no2)cnc1OC(C)C`, the EC50 [1] is reported as 100 nM and the EC50 [2] is reported as greater than 10000 nM.
With `COc1ccc(-c2noc(-c3ccc(OC(C)C)c(Cl)c3)n2)c2c1c(CCC(=O)O)cn2C` the EC50 [1] was 6.31 nM and the EC50 [2] was greater than 10000 nM.
`CC(C)Oc1ccc(-c2nc(-c3c(F)ccc4c(CCC(=O)O)cn(C)c34)no2)cc1Cl` showed an EC50 [1] of 25.1 nM and an EC50 [2] greater than 10000 nM.
Compound `CC(C)Oc1ccc(-c2nc(-c3cccc4c(CCC(N)=O)c[nH]c34)no2)cc1Cl` has an EC50 [1] of 0.0316 nM and an EC50 [2] greater than 10000 nM.
Compound `CNC(=O)CCc1c[nH]c2c(-c3noc(-c4ccc(OC(C)C)c(Cl)c4)n3)cccc12` has an EC50 [1] of 0.0398 nM and an EC50 [2] greater than 10000 nM.
`O=C(O)CCc1c[nH]c2c(-c3noc(C4CCOCC4)n3)cccc12` gave an EC50 [1] greater than 10000 nM and an EC50 [2] greater than 10000 nM.
For `CC(C)Oc1ccc(-c2nc(-c3ccc4ccn(CCC(=O)O)c4c3)no2)cc1Cl`, the EC50 [1] was 398 nM and the EC50 [2] was greater than 10000 nM.
`CC(C)Oc1ncc(-c2nc(-c3cccc4c(CCC(=O)O)c[nH]c34)no2)cc1Cl` gave an EC50 [1] of 0.398 nM and an EC50 [2] greater than 10000 nM.
Work on `CC(C)Oc1ccc(-c2nc(-c3cccc4c(CC(=O)O)c[nH]c34)no2)cc1Cl` yielded an EC50 [1] of 39.8 nM and an EC50 [2] greater than 10000 nM.
